According to patent publication US8323971B2, “Differentiation of pluripotent cells into primary germ layer progenitors” (Cambridge Enterprise Limited, priority 2006, dated 2012):

Tested on: H9 hESCs
Experiment: Screening of culture conditions by immunostaining for Oct4, Sox2, Brachyury, Sox17
Format: cell-based, human
Set-up: key to Pluripotency Oct4, fraction of expressing cells / Neuro Sox2, fraction of expressing cells / Meso Brachyury, fraction of expressing cells / Endo Sox17, fraction of expressing cells: 0 for absence of expression; VL for expressing cells <1%; L for expressing cells <5%; H for expressing cells >10%; VH for expressing cells >50%
Details: Conditions CDM (CDM-BSA), 7 days or more
Description: Table 2 and Table 3 show the screening of culture conditions for inducing mesoendoderm differentiation into CDM. H9 hESCs were grown for 7 days or more in CDM-BSA or CDM-PVA supplemented with different growth factors (Activin, BMP4, FGF2) or inhibitors (SU5402 for FGF, SB431542 for Activin/Nodal/TGFβ, BIO for βCatenin). Then, immunostaining analysis were used to determine the fractions of cells expressing the pluripotent marker Oct-4, neuroectoderm marker Sox2, the mesoderm marker Brachyury, and the endoderm marker Sox17. The quantities of expressing cells were divided into five arbitrary categories. 0 for absence of expression, VL for expressing cells <1%, L for expressing cells <5%, H for expressing cells >10%, VH for expressing cells >50%. IN red are indicated the conditions allowing the generation of mesendoderm cells expressing Brachyury or Sox17.
HESCs or differentiated progenitors were fixed for 20 minutes at 4° C. in 4% paraformaldehyde (PFA) and then washed three times in PBS. Cells were incubated for 20 minutes at room temperature in PBS containing 10% goat serum (Serotec) and subsequently incubated over night at 4° C. with primary antibody diluted in 1% goat serum in PBS as follows: SSEA-3 (1:100, Santa Cruz), SSAE-1 (1:25), Tra-1-60 (1:100, Santa CruZ), Oct-4 (1:100, Abcam ab18976 or SantaCruz), Sox2 (1:100, Abcam ab15830), Alkaline Phophatase (1:50, Abcam ab17989), Brachyury (1:100, Abcam ab20680 or RandD systems), Sox17 (RandD systems), FoxA2 (1:50, Abcam ab5074), GATA4 (1:250, Santa CruZ), GATA6 (1:200, Abcam ab22600 or Santa Cruz), Vent-2 (1:100, Abcam ab20913), Goosecoid (1:25, Abcam ab21059), Wnt3A (1:100, Abcam ab19925), CXCR4 (1:100, RanD Systems or Pharmingen). Nestin (1:200, Abcam ab5968), NCAM (1:100, Abcam ab8077), GFAP (ZZ), Neurofilament (ZZ), βIII Tubulin (ZZ), Glutamate (ZZ), N-Cadherin (1:100, Abcam ab18203 or ZZ). Cells were then washed three times in PBS and incubated with fluorescein-Isothiocyanate-conjugated anti-mouse IgG or IgM (Sigma 1:200 in 1% goat serum in PBS) or rat IgM (Jackson laboratory 1:300 in goat serum in PBS) or rabbit IgG (Jackson laboratory 1:200 in donkey serum in PBS) for two hours at room temperature. Unbound secondary antibody was removed by 3 washes in PBS. Hoechst 33258 was added to the first wash (Sigma 1:10000).
We then developed a method for inducing differentiation of hESCs into the three primary germ layers. Culture conditions inductive for mesoderm, endoderm and neuroectoderm were screened using an approach based on immunostaining analyses for the expression of proteins specifically expressed by pluripotent cells (Oct-4), neuroectoderm progenitors (Sox2 in absence of Oct4), endoderm progenitors (Sox17) and mesoderm progenitors (Brachyury). In summary, hESCs grown in CDM (CDM-BSA or hu-CDM) were plated on fibronectin in CDM-BSA/AF or CDM-PVA/AF. Then cocktails of growth factors (BMP4, FGF2, Activin) or chemical inhibitors (SU5402, SB431542) were added at different times and for different periods. After 7 to 10 days treatment, cells were fixed and then the expression of Oct-4/Sox2, Sox17 and Brachyury was analysed using immunostaining. The effect of three growth factors on the differentiation of hESCs into the primary germ layers was systematically analysed in our screen. We also studied the function of FGF and Activin signalling pathways in the maintenance of the pluripotent state by analysing the effect of the SU5402, a chemical inhibitor of FGF receptors, and the SB431542, a chemical inhibitor of Activin/TGFβ receptors.

BMP4: Bone Morphogenetic Protein 4 growth factor
0: Endo Sox17, fraction of expressing cells | Meso Brachyury, fraction of expressing cells | Neuro Sox2, fraction of expressing cells | Pluripotency Oct4, fraction of expressing cells
